# Source: PMC7802229, “Alkaloid and benzopyran compounds of Melicope latifolia fruit exhibit anti-hepatitis C virus activities” (BMC Complementary Medicine and Therapies, 2021)
# “Also recorded” adds a separate entry of the source. Read-outs that look alike come from different tables or passages of the source.
# Columns and labels:
# [1] = tested on: HCV life cycle (entry / post-entry); assay: Time-of-addition experiment; type: cell-based; settings: 25 μg/ml; for inhibition at 25 µg/mL: Hepatitis C virus, mean ± SD of triplicate; for Mode of action: time of addition
# Method: A time addition experiment was performed to analyze the effect of the extract on the HCV life cycle. Entry inhibition was conducted by treated cells with extracts during viral inoculation to evaluate the inhibition in binding, entry and endocytosis. Post entry inhibition was conducted by treating cells with the extracts after viral inoculation. Supernatants were collected and viral titration and immunostaining was used to assess the mode of action.
# (§1) Viral titration was performed by serially diluting the culture supernatant in DMEM medium and inoculating onto Huh7it-1 cells. After incubation for 41 h, the cells were fixed by 3.7% formaldehyde and permeabilized with 0.5% triton X-100 for 10 min. First antibody (HCV infected serum patient) was used in 1% bovine serum albumin (BSA) /2%BlockIce/ phosphate buffer saline (PBS) with a 300x dilution then incubated for 60 min. Second antibody (HRP-Goat anti human) was used in 1%BSA/2%BlockIce/PBS with a 400x dilution (50 μl/well) and then incubated for 60 min at room temperature. To visualize the infectious foci, 3,3′-diaminobenzidine (DAB) staining (DAB Thermo Scientific, USA) was used for 15 min until a brown color was observed. SPSS probit was used to calculate inhibition concentration 50% (IC50) values.
# [2] = Cytotoxicity assay (MTT); type: cell-based; settings: human, Huh7it-1 cells, mean ± SD of triplicate
# Method: The cytotoxicity analysis was assessed using MTT assay 3-(4,5-Dimethylthiazol-2-Yl)-2,5-Diphenyltetrazolium Bromide. Solutions with extract concentrations of 1000, 400, 100, 50, 10, 1and […] were added onto Huh7it-1 cells in 96 well plates. After 46 h incubation, the medium was removed and 150 μl/well of 10% MTT was added then incubated for 4 h. The purple precipitates were then dissolved in dimethyl sulfoxide (DMSO). The purple solution was measured for UV absorbance using a microplate reader at 560 nm. SPSS probit was used to calculate the cytotoxic concentration 50% (CC50).
# [3] = tested on: HCV NS3 protein; assay: Immunoblotting of HCV NS3 protein in infected Huh7it cells; type: cell-based, hepatitis C virus; settings: Huh7it-HCV infected cells MOI 0.5, various concentrations, 48 h
# Method: Huh7it-1 cells were lysed with Ripa buffer and the amount of protein was checked using a bichincronic acid (BCA) assay kit. The proteins were separated in (sodium dodecyl sulfate polyacrylamide gel electrophoresis (SDS-PAGE) gel and transferred onto a PVDF membrane (Millipore, Bed-ford, MA, USA). Five percent skimmed milk was added to block non-specific binding and incubated for 60 min. First antibody, HCV NS3-specific mouse monoclonal antibody (clone H23; Abcam, Cambridge, MA, USA) and glyceraldehyde-3-phosphate dehydrogenase (GAPDH) antibody (MBL) was added and incubated for 1 h. The 0.05% PBST was used for membrane washing. Second antibody, HRP-conjugated goat anti mouse immunoglobulin (MBL) was incubated for 1 h and the respective protein was visualized using Clarity Western ECL substrate (Biorad). The chemical luminescence was detected using ImageQuant LAS 4000 (GE healthcare).
# Culture of Huh7it-HCV infected cells (MOI = 0.5) was treated with various concentration of compounds. After 48 h of incubation, cells were subjected to western blot analysis using monoclonal antibody against HCV NS3 protein. GAPDH served as an internal control
# [4] = tested on: HCV JFH1a; assay: Antiviral activity assay (HCV infection of Huh7it-1 cells, titre by immunostaining); type: cell-based, hepatitis C virus (genotype 2a); settings: for IC50: Hepatitis C virus, read-out: IC50 (anti-HCV activity); for Anti-HCV activity in words: highest concentration examined 50 μg/ml
# Method: Hepatocyte cells of Huh7it-1 [18] were cultivated in DMEM-Dulbeco’s Modiffied Eagle Medium (GIBCO Invitrogen). The medium was supplemented with 10% Fetal Bovine Serum (FBS, GIBCO-Invitrogen), 0.15 mg/ml kanamycin solution (SIGMA) and 1x Non-Essential Amino Acids (NEAA, GIBCO-Invitrogen). The cell culture was incubated in 5% CO2 at 37 °C. HCV JFH1a was propagated in Huh7it-1 suspended in 4 ml JFH1 suspension and 4 ml DMEM and was incubated at 37 °C in 5% CO2 for 4 h. The suspension was divided into eight flasks and the supernatant was harvested on the third day. The supernatant was concentrated and examined for its viral titration and stored at − 80 °C [10].
# The hepatocyte cells of Huh7it-1 were seeded on a 48 well plate with a cell density of 5.4 × 10^4 and incubated for 24 h. […] The supernatant was removed and washed with medium and placed back into solutions containing the same concentrations of extract. The cultures were then incubated for 48 h and the supernatant was taken to examine the titer infection of the sample by immunostaining.
# as §1
# [5] = tested on: murine leukemia P-388 cells; design: method as in PMID 34498963; settings: cited from earlier work
# [6] = tested on: N-formylmethionylleucylphenylalanine-induced superoxide production; design: method as in PMID 17822293; settings: cited from earlier work
# [7] = tested on: brine shrimp larvae; design: method as in PMID 19483341; settings: cited from earlier work
# [8] = read-out: % Inhibition During inoculation
# [9] = read-out: % Inhibition During+Post inoculation
# [10] = read-out: % Inhibition Post inoculation
# [11] = Huh7it-1 cells, HCV JFH1a MOI 0.1, 48 h, mean ± SD of triplicate
SMILES,"inhibition at 25 µg/mL [1, 8] [%]","inhibition at 25 µg/mL [1, 9] [%]","inhibition at 25 µg/mL [1, 10] [%]",Mode of action [1],CC50 at 46 h [2] [µg/mL],HCV NS3 protein level (western blot) [3],"IC50 [4, 11] [µg/mL]",HCV NS3 protein level (western blot) ([3]; listed as N-methylflidersine),HCV NS3 protein level (western blot) ([3]; listed as N-methylflindersin),IC50 against murine leukemia P-388 cells [5] [µg/mL],IC50 [6] [µM],LD50 towards brine shrimp larvae [7] [µg/mL],IC50 ([4]; 48 h) [µg/mL],Anti-HCV activity in words ([4]; Huh7it-1 cells)
COc1c2c(c3c(c1C(C)=O)OC(C)(C)C=C3)OC(C)(C)C=C2 [O-methyloktadrenolon],9.1 ± 8.5,98.4 ± 0.4,98 ± 0.9,inhibit HCV in the post-entry step; also recorded: Post-entry inhibition,63 ± 2.3,decreased HCV NS3 protein level,10.9 ± 1.2,,,,,,,
Cn1c(=O)c2c(c3ccccc31)OC(C)(C)C=C2 [N-methylflindersine],7.7 ± 1.8,83 ± 0.8,84.1 ± 2.9,inhibit HCV in the post-entry step; also recorded: Post-entry inhibition,97 ± 3.3,HCV NS3 protein reduction,3.8 ± 2.7,decreased level of HCV NS3 protein expression,decreased HCV NS3 protein level,21.06,< 12,1.39,,
COc1c2ccoc2c(OC)c2oc(=O)ccc12 [Isopimpinellin],,,,,> 1000,,,,,,,,> 50,less active; also recorded: did not reveal anti-HCV activities
COc1cc2oc(=O)ccc2c2c1C=CC(C)(C)O2 [Alloxanthoxyletin],,,,,93 ± 3,,21.7 ± 2.2,,,,,,,
COc1cc2c(c(OC)c1C(C)=O)C=CC(C)(C)O2 [Methylevodionol],,,,,310 ± 2.5,,,,,11.98,,,> 50,less active; also recorded: did not reveal anti-HCV activities
COc1cc(O)c(C(C)=O)c2c1C=CC(C)(C)O2 [Alloevodionol],,,,,> 1000,,41.1 ± 3.1,,,,,,,less active; also recorded: moderate inhibition
